Source: patent US20030170643A1, “Regulation of apoB treatment and drug screening for cardiovascular and metabolic disorders or syndromes” (priority 1999, published 2003)

Target: T1, purified bovine MTP (Bos taurus, UniProt P55156)
T1 sequence (P55156 12-887): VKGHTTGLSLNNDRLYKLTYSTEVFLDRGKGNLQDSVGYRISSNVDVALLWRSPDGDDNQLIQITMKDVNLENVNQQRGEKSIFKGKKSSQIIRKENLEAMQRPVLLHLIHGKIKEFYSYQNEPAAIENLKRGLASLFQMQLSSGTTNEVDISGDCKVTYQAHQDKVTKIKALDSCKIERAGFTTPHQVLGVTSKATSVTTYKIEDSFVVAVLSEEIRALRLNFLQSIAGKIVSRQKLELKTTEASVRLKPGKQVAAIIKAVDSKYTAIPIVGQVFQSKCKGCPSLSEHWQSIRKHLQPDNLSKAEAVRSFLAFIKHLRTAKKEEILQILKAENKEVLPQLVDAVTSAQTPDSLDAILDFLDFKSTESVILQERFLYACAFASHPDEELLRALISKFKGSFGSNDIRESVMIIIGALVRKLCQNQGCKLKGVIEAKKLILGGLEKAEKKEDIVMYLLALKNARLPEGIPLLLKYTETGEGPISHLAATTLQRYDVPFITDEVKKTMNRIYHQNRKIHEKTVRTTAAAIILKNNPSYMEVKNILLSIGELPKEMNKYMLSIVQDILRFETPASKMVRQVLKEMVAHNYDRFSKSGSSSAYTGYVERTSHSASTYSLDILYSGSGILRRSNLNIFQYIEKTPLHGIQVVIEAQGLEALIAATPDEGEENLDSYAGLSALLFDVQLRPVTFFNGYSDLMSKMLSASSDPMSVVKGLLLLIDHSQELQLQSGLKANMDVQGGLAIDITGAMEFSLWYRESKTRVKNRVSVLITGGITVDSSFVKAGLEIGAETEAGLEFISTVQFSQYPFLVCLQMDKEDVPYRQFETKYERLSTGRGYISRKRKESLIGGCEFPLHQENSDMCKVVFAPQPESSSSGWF
T1 sequence (P05307 21-510 partner): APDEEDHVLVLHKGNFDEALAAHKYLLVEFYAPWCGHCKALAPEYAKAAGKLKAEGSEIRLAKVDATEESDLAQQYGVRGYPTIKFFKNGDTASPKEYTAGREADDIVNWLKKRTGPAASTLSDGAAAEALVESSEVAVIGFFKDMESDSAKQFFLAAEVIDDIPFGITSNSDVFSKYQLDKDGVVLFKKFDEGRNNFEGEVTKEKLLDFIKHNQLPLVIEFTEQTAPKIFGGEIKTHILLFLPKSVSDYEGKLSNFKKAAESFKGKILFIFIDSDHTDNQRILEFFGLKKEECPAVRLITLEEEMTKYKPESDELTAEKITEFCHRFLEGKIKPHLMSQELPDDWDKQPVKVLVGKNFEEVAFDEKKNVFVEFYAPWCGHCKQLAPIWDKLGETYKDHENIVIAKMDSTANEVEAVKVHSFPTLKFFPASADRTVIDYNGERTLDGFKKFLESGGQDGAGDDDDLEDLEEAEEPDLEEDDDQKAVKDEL
Experiment: MTP-mediated transfer of lipid classes biosynthetically labeled with OA or EPA (donor/acceptor vesicles)
Format: biochemical
Description: FIG. 5 illustrates that Ω-3 lipids are good substrates for MTP-mediated lipid transfer. HepG2 cells were incubated for 14 hr at 37° C. with ^14C-labeled oleate (OA) or ^14C-labeled EPA complexed to BSA (final concentration of either fatty acid was 0.8 mM). Total lipids were extracted from the washed cell monolayers and separated by preparative TLC into triglyceride (TG), cholesteryl ester (CE), phosphatidylcholine (PC), and phosphatidylethanolamine (PE). The isolated lipid classes were then incorporated (to a content of 0.5 mol %) into vesicles that were used as donors in lipid transfer assays with recombinant MTP. Results were normalized to the transfer of [^14C]triolein and are shown as mean values ±SE (n=4).
Three methods were used to assess possible effects of Ω-3 fatty acids on cellular MTP function. First, rat primary hepatocytes were incubated with BSA, OA, or EPA, and then MTP activity in cell lysates was measured using a fluorescent assay (Roar Biomedical, New York, NY). Second, to determine if lipid classes synthesized in the presence of OA or Ω-3 fatty acid are equivalent substrates for MTP, primary rat hepatocytes or HepG2 cells were incubated with tritiated OA or EPA, total cellular lipids were extracted into isopropanol, and biosynthetically labeled cholesteryl ester, triglyceride, and phospholipids were separated by preparative thin layer chromatography. Each of these isolated lipids was incorporated into vesicles that were used as donors in a transfer reaction with acceptor vesicles and […] of purified bovine MTP, as described in Jamil, H., Dickson, J. K., Jr., Chu, C. H., Lago, M. W., Rinehart, J. K., Biller, S. A., Gregg, R. E., and Wetterau, J. R. (1995) J Biol Chem 270(12), 6549-54. As an internal control for lipid transfer, each donor vesicle also contained [^14C]triolein. Third, to determine if Ω-3 lipids inhibit MTP-mediated transfer of non-Ω-3 lipids, artificial donor vesicles were prepared containing either labeled triolein or labeled POPC. The majority of lipid mass in these vesicles was unlabeled phosphatidylcholine that contained either 100% oleate esterified at the sn-2 position (control) or a mixture of 70% oleate and 30% DHA or 30% EPA. Transfer of the labeled lipids to acceptor vesicles in the presence of 50 μg of purified bovine MTP was measured as described in Jamil, H. et al (1995) J Biol Chem 270(12), 6549-54.
An intracellular abundance of relatively poor lipid substrates, produced during incubations of hepatocytes with EPA or DHA, could be functionally equivalent to MTP inhibition. Thus, rat primary hepatocytes and HepG2 cells were incubated with radiolabeled OA or EPA to allow incorporation of these fatty acids into lipid esters. […]

Structure (SMILES): CCCCCCCC/C=C\CCCCCCCC(=O)O [OA, oleic acid]
- MTP-mediated transfer of labeled cholesteryl esters, % of [14C]triolein transfer (lipids from fatty acid-treated HepG2 cells, P=0.07): 20%+4%
- MTP-mediated transfer of labeled phosphatidylethanolamines, % of [14C]triolein transfer (lipids from fatty acid-treated HepG2 cells, P=0.6): 1.1%+0.1%
- MTP-mediated transfer of labeled phosphatidylcholines, % of [14C]triolein transfer (lipids from fatty acid-treated HepG2 cells, P=0.7): 2.3%+1%
- MTP-mediated transfer rate of labeled triglycerides, % of [14C]triolein transfer (lipids harvested from fatty acid-treated HepG2 cells, P=0.3): 60%±8%
